The text below walks through data of publication PMC1851987, “Identification of the Endogenous Key Substrates of the Human Organic Cation Transporter OCT2 and Their Implication in Function of Dopaminergic Neurons” (PLoS ONE, 2007).

The target of data set [1] is T1, organic cation transporter OCT2 (wild-type 400R) (Homo sapiens, UniProt O15244, S270A).
T1 sequence (O15244 1-555 S270A): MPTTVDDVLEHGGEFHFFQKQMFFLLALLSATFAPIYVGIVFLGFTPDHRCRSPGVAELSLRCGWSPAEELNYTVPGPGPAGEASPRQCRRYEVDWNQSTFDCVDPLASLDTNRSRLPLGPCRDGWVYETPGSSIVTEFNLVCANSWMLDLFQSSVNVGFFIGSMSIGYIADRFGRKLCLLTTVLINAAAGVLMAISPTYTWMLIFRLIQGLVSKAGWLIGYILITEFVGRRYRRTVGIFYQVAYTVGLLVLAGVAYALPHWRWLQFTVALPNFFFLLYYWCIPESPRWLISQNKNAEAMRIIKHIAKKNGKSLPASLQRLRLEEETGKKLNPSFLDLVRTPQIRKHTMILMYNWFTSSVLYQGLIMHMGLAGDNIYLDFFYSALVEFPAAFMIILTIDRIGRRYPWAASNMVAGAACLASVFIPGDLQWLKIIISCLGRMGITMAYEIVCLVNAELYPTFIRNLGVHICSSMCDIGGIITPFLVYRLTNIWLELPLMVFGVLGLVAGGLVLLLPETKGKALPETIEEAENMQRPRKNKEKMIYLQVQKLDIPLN
Put plainly: Specific uptake into OCT2 (wild-type) transfected HEK-293 cells vs empty vector, LC-MS-MS. Conditions: for influx clearance Clin: specific uptake after incubation with 10 µmol/l, mean (s.e.m.), n = 3.

In a further data set the test system is SH-SY5Y cells. Kind of data set: MTT reduction cell viability assay, SH-SY5Y cells. It counts as cell-based, human. How it is done:
(§1) Cell viability was assessed in HEK-293 cells, human dopaminergic neuroblastoma cells (SH-SY5Y) and human glioblastoma cells (HTZ-146) by the MTT test as described.[22] […] For indication of metabolic activity, cells were treated with MTT reagent (15 µl of 1 mg/ml stock solution per well) for 1 h, and after drying of culture plates for 1 h at 37°C, the resulting formazan dye was extracted with isopropanol/HCl (100 µl 0.04 mol/l per well) and absorbance was determined spectrophotometrically at 568 nm. Results were in agreement with the data obtained by the tryptan blue exclusion method (data not shown).

Data set [2] addresses T2, norepinephrine transporter (NET) (Homo sapiens, UniProt P23975).
T2 construct: expressed in transfected cells; host or cells: HEK-293, stably transfected; cDNA from C; Pifl (University of Vienna)
Put plainly: Specific uptake into norepinephrine transporter (NET) transfected HEK-293 cells. The class given is cell-based. To be noted: 10 µmol/l, 5 min incubation. The source says:
Pifl (University of Vienna).
1. Burnette WB, Bailey MD, Kukoyi S, Blakely RD, Trowbridge CG, et al. (1996) Human norepinephrine transporter kinetics using rotating disk electrode voltammetry. Anal Chem 68: 2932–2938. (0.90 MB TIF) Click here for additional data file.

For a further data set, the system named is HTZ-146 cells. Kind of data set: MTT reduction cell viability assay, HTZ-146 cells. It counts as cell-based, human. The procedure:
as §1

The test system of data set [3] is HEK-293 cells expressing empty vector. Kind of data set: MTT reduction cell viability assay, empty vector transfected HEK-293 cells. It counts as cell-based, human. The procedure:
as §1

[4] abbreviates: pre-treated 1 h with 10 µmol/l cyclo(his-pro).

T2 sequence (P23975 whole entry): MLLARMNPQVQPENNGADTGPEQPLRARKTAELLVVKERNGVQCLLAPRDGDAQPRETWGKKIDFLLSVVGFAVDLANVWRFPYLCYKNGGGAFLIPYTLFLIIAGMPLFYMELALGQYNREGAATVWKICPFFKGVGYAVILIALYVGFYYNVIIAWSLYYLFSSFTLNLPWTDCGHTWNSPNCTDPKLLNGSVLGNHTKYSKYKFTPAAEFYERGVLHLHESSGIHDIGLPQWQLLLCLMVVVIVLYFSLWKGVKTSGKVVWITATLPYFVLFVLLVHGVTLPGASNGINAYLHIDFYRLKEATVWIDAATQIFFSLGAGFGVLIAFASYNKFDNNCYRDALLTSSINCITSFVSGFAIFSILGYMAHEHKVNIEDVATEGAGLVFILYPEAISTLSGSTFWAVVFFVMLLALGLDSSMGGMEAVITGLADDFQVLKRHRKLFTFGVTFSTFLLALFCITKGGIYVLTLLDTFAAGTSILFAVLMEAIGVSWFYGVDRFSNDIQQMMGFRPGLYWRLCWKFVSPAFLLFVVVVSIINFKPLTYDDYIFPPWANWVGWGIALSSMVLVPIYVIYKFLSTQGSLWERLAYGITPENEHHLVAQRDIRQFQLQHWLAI

As to `O=C1NC(Cc2c[nH]cn2)C(=O)N2CCCC12` (stereo not shown) [cyclo(his-pro), histidyl-proline diketopiperazine], the “dependence of specific uptake on pH” value in data set [1] (10 µmol/l, 3 min incubation) was “pH influenced specific uptake”. Moreover, the “dependence of specific uptake on extracellular sodium concentration” value in data set [1] (10 µmol/l, 3 min incubation, sodium chloride isoosmotically replaced with lithium chloride) is recorded as “independent of extracellular sodium concentration”. In addition, in data set [1], the “influx clearance Clin” value is 25.0 (4.2) µl/mg/min. Further, the “effect on glutamate-induced cytotoxicity” value with SH-SY5Y cells (setting [4]) and with HTZ-146 cells (setting [4]) was “prevented” each time. Also, the “substrate of NET (specific uptake)” value in data set [2] was “no substrates of NET”. Besides, in data set [3] (cyclo(his-pro) 10 µmol/l, 12 h prior to salsolinol treatment), the “effect of pretreatment on salsolinol-induced degeneration” value is given as “had no effect”.

As to `CC1NCCc2cc(O)c(O)cc21` (stereo not shown) [salsolinol], the “N-methylation of intracellular salsolinol (of salsolinol concentration)” value in data set [1] (after 60 min of incubation, transfected HEK-293 cells) is recorded as at most 2.5%. In addition, the “influx clearance Clin” value in data set [1] was 18.5 (2.6) µl/mg/min. Besides, the EC50 with SH-SY5Y cells (Homo sapiens, SH-SY5Y, 48 h, non-pretreated, read-out: EC50 (95% confidence interval), cell viability) worked out at 49 µM; in the data set on HTZ-146 cells (Homo sapiens, 48 h, non-pretreated, read-out: EC50 (95% confidence interval), cell viability) it was 138 µM; in data set [3] (Homo sapiens, HEK293, 48 h exposure, no pretreatment, read-out: EC50 (95% confidence interval), cell viability), 1110 µM. For the same compound, the “substrate of NET (specific uptake)” value in data set [2] is given as “no substrates of NET”.

The term EC50 denotes the concentration at which the effect is half-maximal.
